Counter-ions that a name gives are not always drawn.
What was measured:
Format in all cases: physicochemical
[1] = In-use disappearance of the dye in ammonia buffer with hydrogen peroxide (UV/visible absorbance); settings: % loss recorded at 30 minutes in the presence of a 3% peroxide solution at pH 10.58
Method: Disappearance of the dye is measured on a Cary 100 UV/visible spectrophotometer. A solution of the dye in 50% aqueous ethanol at a concentration sufficient to give an absorbance of 2.0 at the dye's λmax and buffered at pH 10.6 with ammonia is mixed with an equal volume of 6% hydrogen peroxide in a 1 cm quartz cuvette. […]

[2] = Storage stability: disappearance of the dye on storage at pH 10, 25° C. (UV/visible absorbance); settings: % loss on 1-month storage at pH 10, 25° C.
Method: Disappearance of the dye is measured on a Cary 100 UV/visible spectrophotometer using a 1 cm cuvette. A solution of the dye is prepared at a concentration sufficient to give an absorbance of 0.9-1.1 at the dye's λmax when buffered at pH 10.0. The absorbance is measured after storage at 25° C. Percent disappearance is calculated as the difference between the starting absorbance (A0) and the absorbance (At) at a specific storage period divided by the starting absorbance minus the baseline absorbance (Ab), by the following equation: […]

[3] = Color (λmax) by UV/visible spectrophotometer

Question: With CCN1CCN(CC)c2cc(/N=N/c3n(CCCN)cc[n+]3CCCN)ccc21.Cl.Cl.[Br-] [Compound 1, (E)-1,3-bis(3-ammoniopropyl)-2-((1,4-diethyl-1,2,3,4-tetrahydroquinoxalin-6-yl)diazenyl)-1H-imidazol-3-ium bromide dichloride] as the compound, how does the “% Disappearance (In-use)” value [1] read?
Answer: 2.0%

Question: What about the “% Disappearance (Storage)” value [2] of the same compound?
Answer: 2.05%

Question: What about the “Color (λmax; nm)” value [3] of the same compound?
Answer: 587 nm

Question: With CCN1CCN(CC)c2cc(/N=N/c3n(CCC[N+](C)(C)C)cc[n+]3CCC[N+](C)(C)C)ccc21 [Compound 2, (E)-2-((1,4-diethyl-1,2,3,4-tetrahydroquinoxalin-6-yl)diazenyl)-1,3-bis(3-(trimethyl-ammonio)propyl)-1H-imidazol-3-ium tribromide] as the compound, how does the “% Disappearance (In-use)” value [1] read?
Answer: 0%

Question: And the “% Disappearance (Storage)” value [2]?
Answer: 0.71%

Question: And the “Color (λmax; nm)” value [3]?
Answer: 580 nm

Question: Which “% Disappearance (In-use)” value [1] does the source give for CN1CCNc2cc(/N=N/c3n(CCCN)cc[n+]3CCCN)ccc21.Cl.Cl.[Br-] [Compound 3, (E)-1,3-bis(3-ammoniopropyl)-2-((1-methyl-1,2,3,4-tetrahydroquinoxalin-6-yl)diazenyl)-1H-imidazol-3-ium bromide dichloride] here?
Answer: 1.91%

Question: And the “% Disappearance (Storage)” value [2]?
Answer: 4.55%

Question: What about the “Color (λmax; nm)” value [3] of the same compound?
Answer: 580 nm

Question: For CCCCCN1CCN(CCCCC)c2cc(/N=N/c3n(CCCCN)cc[n+]3CCCCN)ccc21.Cl.Cl.[Br-] [Compound 4, (E)-1,3-bis(4-ammoniobutyl)-2-((1,4-dipentyl-1,2,3,4-tetrahydroquinoxalin-6-yl)diazenyl)-1H-imidazol-3-ium bromide dichloride], which “% Disappearance (In-use)” value [1] is on record?
Answer: 1.85%

Question: And the “% Disappearance (Storage)” value [2]?
Answer: 3.86%

Question: And the “Color (λmax; nm)” value [3]?
Answer: 599 nm

Question: Which “% Disappearance (In-use)” value [1] does the source give for CCCCCN1CCNc2cc(/N=N/c3n(CCCN)cc[n+]3CCCN)ccc21.Cl.Cl.[Br-] [Compound 5, (E)-1,3-bis(3-ammoniopropyl)-2-((1-pentyl-1,2,3,4-tetrahydroquinoxalin-6-yl)diazenyl)-1H-imidazol-3-ium bromide dichloride] here?
Answer: 2.9%

Question: And the “% Disappearance (Storage)” value [2]?
Answer: 3.14%

Question: And the “Color (λmax; nm)” value [3]?
Answer: 582 nm

Question: Which results are given for CCN1CCN(CC)c2cc(/N=N/c3n(CCC[N+](C)(C)C)cc[n+]3CCC[N+](C)(C)C)ccc21 [Compound 6]?
Answer: % Disappearance (In-use) [1]: 10.86%; % Disappearance (Storage) [2]: 3.47%; Color (λmax; nm) [3]: 592 nm

Question: What does the source list for C=CCN1CCN(CC=C)c2cc(/N=N/c3n(CCCCN)cc[n+]3CCCCN)ccc21 [Compound 7]?
Answer: % Disappearance (In-use) [1]: 0.8%; % Disappearance (Storage) [2]: 4.79%; Color (λmax; nm) [3]: 580 nm

Question: Which results are given for Cn1cc[n+](C)c1/N=N/c1cc2c3c(c1)OCCN3CCO2 [Compound 8, (E)-1,3-dimethyl-2-((2,3,4,5-tetrahydro-1,6-dioxa-3a-azaphenalen-8-yl)diazenyl)-1H-imidazol-3-ium methyl sulfate]?
Answer: % Disappearance (In-use) [1]: 1.28%; % Disappearance (Storage) [2]: 1.27%; Color (λmax; nm) [3]: 553 nm

Question: With CCN1CCN(CC)c2cc(/N=N/c3n(CCCCN)cc[n+]3CCCCN)ccc21 [Compound 9] as the compound, how does the “% Disappearance (In-use)” value [1] read?
Answer: 1.85%

Question: And the “% Disappearance (Storage)” value [2]?
Answer: 3.37%

Question: And the “Color (λmax; nm)” value [3]?
Answer: 587 nm

Source: patent US9982138B2, “Hair color compositions comprising stable violet-blue to blue imidazolium dyes” (Noxell Corporation, priority 2016, dated 2018)
